Values of other authors, collected in patent US8679052B2, “Method for accurately determining concentrations of diffusible materials” (priority 2009, dated 2014).

Test system: red blood cells
Conditions: red blood cells suspended in buffer; in the first 1-2 minutes

CC(=O)/N=c1/sc(S(N)(=O)=O)nn1C [methazolamide]
decrease of buffer concentration (uptake by red blood cells): 50%
